Results taken from PubChem BioAssay AID1259411 (Chemical Carcinogenesis Research Information System (CCRIS), 2018).
The source made the active and inactive calls. No rule for the calls is given here.

Tested on: rodent carcinogenicity bioassays, tumor incidence
Assay: CCRIS carcinogenicity studies
How it was run: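 NCI-built, expert-reviewed records of carcinogenicity and related test outcomes (mutagenicity, tumor promotion/inhibition) compiled from published and report sources, historical span 1985-2011, not updated.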

## CCO[Si](CCCOCC1CO1)(OCC)OCC (configuration not stated)
Species: MOUSE, Strain/Sex: C3H/MALE, Route: DERMAL, Dose: 0, 2 MG IN ACETONE 3/WK FOR DURATION OF STUDY (STUDY DURATION: LIFETIME)
  carcinogen call: inactive; negative

## Cc1c(C)c2c3c(ccc2c2ccccc12)[C@@H](O)[C@H](O)[C@@H]1O[C@H]31
Species: MOUSE, Strain/Sex: ICR/FEMALE, Route: INTRAPERITONEAL, Dose: 0, 8 NMOL IN 5 µL DMSO TO PUPS ON D 1/OF LIFE THEN 16 NMOL IN 10 µL ON D 8 AND 3 NMOL IN 20 µL D 15 (STUDY DURATION: 35, Tumor Site: Type of Lesion: LUNG: TUMOR
  carcinogen call: active; positive
Species: MOUSE, Strain/Sex: ICR/MALE, Route: INTRAPERITONEAL, Dose: 0, 8 NMOL IN 5 µL DMSO TO PUPS ON D 1/OF LIFE THEN 16 NMOL IN 10 µL ON D 8 AND 3 NMOL IN 20 µL ON D 15 (STUDY DURATION:, Tumor Site: Type of Lesion: LUNG: TUMOR, LIVER: TUMOR
  carcinogen call: active; positive

## CCCc1cc2ccccc2c2ccc3c(c12)C1OC1C(O)C3O (configuration not stated)
Species: MOUSE, Strain/Sex: ICR/FEMALE, Route: INTRAPERITONEAL, Dose: 0, 8 NMOL IN 5 µL DMSO ON D 1, 16 NMOL IN 10 µL ON D 8 AND 32 NMOL IN 20 µL ON D 15 OF LIFE (STUDY DURATION: 35 WK)
  carcinogen call: inactive; negative
Species: MOUSE, Strain/Sex: ICR/MALE, Route: INTRAPERITONEAL, Dose: 0, 8 NMOL IN 5 µL DMSO ON D 1, 16 NMOL IN 10 µL ON D 8 AND 32 NMOL IN 20 µL ON D 15 OF LIFE (STUDY DURATION: 35 WK)
  carcinogen call: inactive; negative

## COc1nc(C)nc(NC(=O)NS(=O)(=O)c2ccccc2Cl)n1
Species: Rat, Strain/Sex: CD/Female (50/group), Route: Oral, Dose: 0, 100, 500, 2,500 ppm in diet for 2 yr, Dose: 0, 100, 500, 2,500 ppm in diet for 2 yr
  carcinogen call: inactive; negative (study details not given in source; purity 92-95%)
Species: Rat, Strain/Sex: CD/Male (50/group), Route: Oral, Dose: 0, 100, 500, 2,500 ppm in diet for 2 yr, Dose: 0, 100, 500, 2,500 ppm in diet for 2 yr
  carcinogen call: inactive; negative (study details not given in source; purity 92-95%)

## O=C1OC(=O)c2ccccc21
Species: MOUSE, Strain/Sex: B6C3F1/FEMALE, Route: ORAL, Dose: 0, 12019, 24038 PPM IN DIET, TWA (STUDY DURATION: 104 WK), Dose: 0, 12019, 24038 PPM IN DIET, TWA (STUDY DURATION: 104 WK)
  carcinogen call: inactive; negative
Species: MOUSE, Strain/Sex: B6C3F1/MALE, Route: ORAL, Dose: 0, 16346, 32692 PPM IN DIET, TWA (STUDY DURATION: 104 WK), Dose: 0, 16346, 32692 PPM IN DIET, TWA (STUDY DURATION: 104 WK)
  carcinogen call: inactive; negative
Species: RAT, Strain/Sex: F344/FEMALE, Route: ORAL, Dose: 0, 7500, 15000 PPM IN DIET FOR 105 WK, Dose: 0, 7500, 15000 PPM IN DIET FOR 105 WK
  carcinogen call: inactive; negative
Species: RAT, Strain/Sex: F344/MALE, Route: ORAL, Dose: 0, 7500, 15000 PPM IN DIET FOR 105 WK, Dose: 0, 7500, 15000 PPM IN DIET FOR 105 WK
  carcinogen call: inactive; negative

## O[C@@H]1[C@@H]2O[C@@H]2C=C[C@H]1O
Species: MOUSE, Strain/Sex: SWISS/FEMALE, Route: INTRAPERITONEAL, Dose: 0, 2.7, 13.7 UMOL ADMINISTERED AS 3 UNEQUAL DOSES (1/7, 2/7, AND 4/7 OF THE TOTAL DOSE) OVER A 2-WK PERIOD (STUDY DURATI, Dose: 0, 2.7, 13.7 UMOL ADMINISTERED AS 3 UNEQUAL DOSES (1/7, 2/7, AND 4/7 OF THE TOTAL DOSE) OVER A 2-WK PERIOD (STUDY DURATI, Tumor Site: Type of Lesion: LUNG: ADENOMA
  carcinogen call: active; positive
Species: MOUSE, Strain/Sex: SWISS/FEMALE, Route: INTRAPERITONEAL, Dose: 0, 13.7 UMOL ADMINISTERED AS 3 UNEQUAL DOSES (1/7, 2/7, AND 4/7 OF THE TOTAL DOSE) OVER A 2-WK PERIOD (STUDY DURATION: 2, Tumor Site: Type of Lesion: LUNG: ADENOMA
  carcinogen call: active; positive
Species: MOUSE, Strain/Sex: SWISS/MALE, Route: INTRAPERITONEAL, Dose: 0, 2.7, 13.7 UMOL ADMINISTERED AS 3 UNEQUAL DOSES (1/7, 2/7, AND 4/7 OF THE TOTAL DOSE) OVER A 2-WK PERIOD (STUDY DURATI, Dose: 0, 2.7, 13.7 UMOL ADMINISTERED AS 3 UNEQUAL DOSES (1/7, 2/7, AND 4/7 OF THE TOTAL DOSE) OVER A 2-WK PERIOD (STUDY DURATI, Tumor Site: Type of Lesion: LUNG: ADENOMA
  carcinogen call: active; positive
Species: MOUSE, Strain/Sex: SWISS/MALE, Route: INTRAPERITONEAL, Dose: 0, 13.7 UMOL ADMINISTERED AS 3 UNEQUAL DOSES (1/7, 2/7, AND 4/7 OF THE TOTAL DOSE) OVER A 2-WK PERIOD (STUDY DURATION: 2, Tumor Site: Type of Lesion: LUNG: ADENOMA
  carcinogen call: active; positive

## O=c1ccc2ccc3occc3c2o1
Species: MOUSE, Strain/Sex: C3H/HEN/FEMALE, Route: DERMAL, Dose: 215 UG IN 70% ETHANOL 3/WK FOR 48 WK (STUDY DURATION: 68 WK)
  carcinogen call: inactive; negative

## C[N+](=O)[O-]
Species: GUPPIE, Strain/Sex: FEMALE, Route: AQUARIUM WATER, Dose: 0, 10, 30, 70 MG/L FOR 16 MO (STUDY DURATION: 16 MO), Dose: 0, 10, 30, 70 MG/L FOR 16 MO (STUDY DURATION: 16 MO)
  carcinogen call: inactive; negative
Species: MEDAKA, Strain/Sex: FEMALE, Route: AQUARIUM WATER, Dose: 0, 10, 20, 40 MG/L FOR 13 MO (STUDY DURATION: 13 MO), Dose: 0, 10, 20, 40 MG/L FOR 13 MO (STUDY DURATION: 13 MO)
  carcinogen call: inactive; negative
Species: MEDAKA, Strain/Sex: MALE, Route: AQUARIUM WATER, Dose: 0, 10, 20, 40 MG/L FOR 13 MO (STUDY DURATION: 13 MO), Dose: 0, 10, 20, 40 MG/L FOR 13 MO (STUDY DURATION: 13 MO)
  carcinogen call: inactive; negative
Species: MOUSE, Strain/Sex: B6C3F1/FEMALE, Route: INHALATION, Dose: 0, 188, 375, 750 PPM 6 HR/D 5 D/WK FOR 103 WK (STUDY DURATION: 105 WK), Dose: 0, 188, 375, 750 PPM 6 HR/D 5 D/WK FOR 103 WK (STUDY DURATION: 105 WK), Tumor Site: Type of Lesion: HARDERIAN GLAND: ADENOMA, LIVER: HEPATOCELLULAR ADENOMA, LUNG: ALVEOLAR/BRONCHIOLAR ADENOMA, ALVEOLAR/BRONCHIOLAR CARCIN, Tumor Site: Type of Lesion: HARDERIAN GLAND: ADENOMA, LIVER: HEPATOCELLULAR ADENOMA, LUNG: ALVEOLAR/BRONCHIOLAR ADENOMA, ALVEOLAR/BRONCHIOLAR CARCIN
  carcinogen call: active; positive
Species: MOUSE, Strain/Sex: B6C3F1/MALE, Route: INHALATION, Dose: 0, 188, 375, 750 PPM 6 HR/D 5 D/WK FOR 103 WK (STUDY DURATION: 105 WK), Dose: 0, 188, 375, 750 PPM 6 HR/D 5 D/WK FOR 103 WK (STUDY DURATION: 105 WK), Tumor Site: Type of Lesion: HARDERIAN GLAND: CARCINOMA, ADENOMA, LUNG: ALVEOLAR/BRONCHIOLAR CARCINOMA
  carcinogen call: active; positive
Species: RAT, Strain/Sex: F344/FEMALE, Route: INHALATION, Dose: 0, 94, 188, 375 PPM 6 HR/D 5 D/WK FOR 103 WK (STUDY DURATION: 104 WK), Dose: 0, 94, 188, 375 PPM 6 HR/D 5 D/WK FOR 103 WK (STUDY DURATION: 104 WK), Tumor Site: Type of Lesion: MAMMARY GLAND: FIBROADENOMA, CARCINOMA
  carcinogen call: active; positive
Species: RAT, Strain/Sex: F344/MALE, Route: INHALATION, Dose: 0, 94, 188, 375 PPM 6 HR/D 5 D/WK FOR 103 WK (STUDY DURATION: 104 WK), Dose: 0, 94, 188, 375 PPM 6 HR/D 5 D/WK FOR 103 WK (STUDY DURATION: 104 WK)
  carcinogen call: inactive; negative
Species: RAT, Strain/Sex: LONG-EVANS/FEMALE, Route: INHALATION, Dose: 0, 100, 200 PPM 7 HR/D 5 D/WK FOR 2 YR (STUDY DURATION: 2 YR), Dose: 0, 100, 200 PPM 7 HR/D 5 D/WK FOR 2 YR (STUDY DURATION: 2 YR)
  carcinogen call: inactive; negative
Species: RAT, Strain/Sex: LONG-EVANS/MALE, Route: INHALATION, Dose: 0, 100, 200 PPM 7 HR/D 5 D/WK FOR 2 YR (STUDY DURATION: 2 YR), Dose: 0, 100, 200 PPM 7 HR/D 5 D/WK FOR 2 YR (STUDY DURATION: 2 YR)
  carcinogen call: inactive; negative

## Nc1cc2c3ccccc3ccc2c2ccccc12
Species: MOUSE, Strain/Sex: SWISS/FEMALE, Route: INTRAPERITONEAL, Dose: 0, 100 NMOL (TOTAL DOSE) 1/7, 2/7 AND 4/7 ADMINISTERED ON DAYS 1, 8 AND 15 OF LIFE RESPECTIVELY (STUDY DURATION: 32 WK)
  carcinogen call: inactive; negative
Species: MOUSE, Strain/Sex: SWISS/MALE, Route: INTRAPERITONEAL, Dose: 0, 100 NMOL (TOTAL DOSE) 1/7, 2/7 AND 4/7 ADMINISTERED ON DAYS 1, 8 AND 15 OF LIFE RESPECTIVELY (STUDY DURATION: 32 WK)
  carcinogen call: inactive; negative
